Patent US20170035806A1, “COMPOSITION FOR PROPHYLAXIS AND TREATMENT OF BONE DISORDERS” (Chemische Fabrik Budenheim KG, priority 2014, published 2017)
Each block holds one compound with its values, some of them ahead of it.

Legend:
Type in all cases: cell-based, Human
SaOS-2 cells [1] = assay: SEM analysis of HA nodules; conditions: 5 μM, activated cultures, 5 days
Protocol: In this assay Me was Gd. 5 μM of each compound were added to the cells, and the cells were analysed by SEM. The cell cultures were incubated for 5 days either (A) in the absence or (B) in the presence of the activation cocktail. (C) and (F) show incubation of the activated cells with MeCl3; (D) and (G) show incubation of the activated cells with polyP, and (E) and (H) show incubation of the activated cells with polyP•Me. Some nodules (no) and cell layers (c) are marked.
To assure that the increased Alizarin Red S staining is due to a higher HA (Ca-phosphate) deposition SEM analyses were performed. In the absence of the activation cocktail no nodules could be identified on the cells (FIG. 7A). In contrast, if the cells were incubated with the cocktail for 5 days, distinct HA nodules could be identified (FIG. 7B). In the presence of the activation cocktail the cultures were incubated with MeCl3 (FIG. 7C), polyP (FIG. 7D), or both components together, as polyP•Me (FIG. 7E). It is apparent that the density of the nodules in activated cultures incubated with MeCl3 or with polyP alone was lower, compared to polyP•Me. At higher magnification it could be observed that the nodules consisted of irregularly arranged prism-like nanorods (FIGS. 7F to H). […]

BMP2 = assay: qRT-PCR BMP2 gene expression; conditions: 5 μM
SaOS-2 cells [2] = assay: HA mineralization, Alizarin Red S staining and spectrophotometric assay (FIG. 4); conditions: 5 μM, Me = Gd
Protocol: In this assay Me was Gd. The cells were incubated with 5 μM of each of the compounds. FIG. 4 A: The cells were grown for 7 d in the (a) absence or (b) presence of activation cocktail (AC=50 μM ascorbic acid, 10 nM dexamethasone and 1 mM β-glycerophosphate). In separate experiments the cultures were incubated with the activation cocktail and additionally with (c) MeCl3, (d) polyP, or (e) polyP•Me. After incubation, the cell assays were stained with Alizarin Red S to assess the degree of […]. The diameter of the wells was 15 mm. FIG. 4 B: To quantitatively determine the HA mineralization in SaOS-2 cells, the cultures were assayed at the end of the incubation with Alizarin Red S (AR) in the spectrophotometric assay. […]
The intensity of the Alizarin Red colorimetric reaction at the used concentration range is proportional to the extent of mineralization (HA formation), as determined by using a calibration curve. The values measured (given in nmoles of Alizarin Red S bound) were normalized to the total amount of DNA (given in μg) which is proportional to cell number (the amount of DNA per cell is assumed to remain constant during the experiment). […]
The influence of trivalent cations on the extent of mineralization of SaOS-2 cells was determined in vitro using McCoy's medium/10% FCS and applying Alizarin Red S as a dye to monitor HA formation. […]

SaOS-2 cells [3] = assay: MTT colorimetric proliferation/viability assay; conditions: tested concentration range of 0.3 to 30 μM; Me = Gd
Protocol: In this assay Me was Gd. The recordings of developed formazan dye in the control (filled bar) were set to 100%. The results are expressed as means (n=10 experiments each)±SEM.
The effects of polyP•Me as well as of the single components polyP and MeCl3 on proliferation/viability of SaOS-2 cells were determined by applying the MMT colorimetric assay (MMT=3-(4,5-dimethylthiazol-2-yl)-2,5-diphenyltetrazolium bromide).
(§1) Human osteogenic sarcoma SaOS-2 cells are cultured in McCoy's medium (Biochrom, Berlin; Germany) containing 5 mM Na-phosphate and 1 mM CaCl2, supplemented with 15% heat inactivated fetal calf serum (FCS), Na-pyruvate (1 mM), Ca(NO3)2 (0.5 mM), penicillin (100 U/ml), and streptomycin (100 μg/ml), in 6-well plates (surface area 9.46 cm^2; Orange Scientifique, Braine-l'Alleud; Belgium) in a humidified incubator at 37° C. and 5% CO2. Routinely, 2×10^4 cells are added per well (total volume 3 ml).
SaOS-2 cells are seeded at a density of 2×10^4 cells per 3-ml well in a 24-multi-well plate (Orange Scientifique) and cultured for 3 days in McCoy's medium/15% FCS. Increasing concentrations of MeCl3, polyP or polyP•Me are added to the cultures. After incubation, cell proliferation is determined applying the colorimetric method based on the tetrazolium salt […].

SaOS-2 cells [4] = assay: HA mineralization with LaCl3 / polyP, Alizarin Red S OD 570 nm (FIG. 5, 6)
Protocol: The cells were grown for 4 days in the absence of the activation cocktail (AC) and then for further 7 days (i) in the absence or (ii) in the presence of the activation cocktail with increasing concentrations of LaCl3 without (A) or with (B) 50 μM polyP (polyP•La complex). At the end of the incubation period, HA mineralization was determined by incubation of the cultures with Alizarin Red S in the spectrophotometric assay. […] The OD values at 570 nm measured in the spectrophotometric assay in the absence of the activation cocktail had been subtracted from the OD values at 570 nm measured in the presence of the activation cocktail, and the HA formation in the absence of LaCl3 and polyP (FIG. 5 A) was set to 100%.
The data shown in FIG. 5 had been normalized by the number of cells which had been determined in parallel assays. […] The HA formation in the absence of LaCl3 and polyP (FIG. 6 A) was set to 100%.
Similar results were obtained if the values were normalized by cell number (FIG. 6).

SaOS-2 cells [5] = assay: Number of SaOS-2 cells per well (FIG. 3); conditions: for effect on number of SaOS-2 cells per well: polyP 50 μM where present
Protocol: Only at a very high concentration, LaCl3 caused a strong drop of SaOS-2 cell number.
as §1

SMILES: [Cl][Gd]([Cl])[Cl] [MeCl3, GdCl3]
density of HA nodules compared to polyP•Me (SaOS-2 cells [1]): lower
BMP2 expression level versus day 5 (BMP2; 7 days): remained unchanged
increase in steady-state expression of BMP2 (BMP2; day 5, normalized to GAPDH): 1.4 fold
Alizarin Red S bound normalized to total DNA (HA mineralization) (SaOS-2 cells [2]; 7 days after the addition of the activation cocktail): 0.61 ± 0.08 nmol/µg
Alizarin Red S staining intensity / HA formation (SaOS-2 cells [2]; in the presence of the activation cocktail, 7 d): intensified the staining intensity
viability/proliferation of SaOS-2 cells (development of the dye formazan) (SaOS-2 cells [3]): did not change

effect on number of SaOS-2 cells per well (SaOS-2 cells [5]; 0.05 mM to 1 mM LaCl3): did not significantly affect
effect on SaOS-2 cell number (SaOS-2 cells [5]; very high concentration of LaCl3): strong drop
SMILES: [Cl][La]([Cl])[Cl] [LaCl3]
HA formation (SaOS-2 cells [4]; 0.05 mM LaCl3, absence of polyP, activation cocktail 7 days): marked increase
stimulatory effect on HA formation (SaOS-2 cells [4]; LaCl3 0.5 mM and higher, absence of polyP): not observed any more

effect on number of SaOS-2 cells per well (SaOS-2 cells [5]; 0.1 mM AlCl3 and higher): strong reduction
SMILES: [Cl][Al]([Cl])[Cl] [AlCl3]
